Assay results reported in patent US9546401B2, “Assays and methods for selecting a treatment regimen for a subject with depression” (The General Hospital Corporation, priority 2011, dated 2017).
Like-named read-outs stand apart in the source and are kept apart here.

Tested on: MDD patients carrying the indicated biomarkers
Description: Folate levels are classified as either low (<=2.5 ng/ml) or normal; and homocysteine levels as either normal or elevated (>=[…]). The presence or absence of at least one […] allele for the MTHFR gene are entered as a dichotomous variable (present or absent). […] Using folate as an example predicator, the presence or absence of a low serum-folate level along with treatment assignment can be entered in a 2×2, factorial ANOVA, using depression improvement scores (baseline minus endpoint HAM-D-17 scores) as the dependant variable. […] Similar analyses (i.e. separate 2×2 ANOVA's) can be performed substituting the presence of low folate levels for the presence of other predictors as described herein. Similarly, the effect of other predictors can be indicated by the interaction term representing the potential modulating influence of those variables.
The efficacy effect is determined by measuring the mean change in the HAMD-17 score and HAMD-28 score by the end of Phase I and Phase II, as compared to the baseline.

[1] = Phase II, BMI < 30 kg/m^2 and HNE-His < median
[2] = Phase II, BMI < 30 kg/m^2 and SAM/SAH >= median
[3] = Phase II, BMI >= 30 kg/m^2 and HNE-His >= median
[4] = Phase II, BMI*treat (interaction of BMI with the treatment)
[5] = Phase II, MTHFR 677 CC and BMI < 30 kg/m^2
[6] = Phase II, MTHFR 677 CT or TT and BMI >= 30 kg/m^2
[7] = Phase II, MTHFR 677 CT or TT and HNE-His >= median
[8] = Phase II, MTR 2756 AA and BMI < 30 kg/m^2
[9] = Phase II, MTR 2756 AA and HNE-His < median
[10] = Phase II, MTR 2756 AA and MTRR 66 AA
[11] = Phase II, MTR 2756 AA and MTRR 66 AA and SAM/SAH >= median
[12] = Phase II, MTR 2756 AA and SAM/SAH >= median
[13] = Phase II, MTR 2756 AG or GG and BMI >= 30 kg/m^2
[14] = Phase II, MTR 2756 AG or GG and MTRR 66 AG or GG
[15] = Phase II, MTR 2756 AG or GG and MTRR 66 AG or GG and HNE-His >= median
[16] = Phase II, MTRR 66 AA and SAM/SAH >= median
[17] = Phase II, MTRR 66 AG or GG and HNE-His >= median
[18] = Phase II, SAM/SAH < median and HNE-His >= median
[19] = Phase II, SAM/SAH >= median and HNE-His < median
[20] = Pooled phases, 25 =< BMI < 30 kg/m^2

With `CN1c2c(nc(N)[nH]c2=O)NC[C@@H]1CNc1ccc(C(=O)N[C@@H](CCC(=O)O)C(=O)O)cc1` [6(S)-5-MTHF, 6(S)-5-methyltetrahydrofolate] the “Effect on change in HAMD-28 score” value (Phase II, BMI < 25) was −2.300, the “Effect on change in HAMD-17 score” value [1] was 3.667 and the “Effect on change in HAMD-28 score” value [1] was 1.833. The “Effect on change in HAMD-17 score” value [2] was 1.500, the “Effect on change in HAMD-28 score” value [2] was 2.500 and the “Effect on change in HAMD-17 score” value (Phase II, BMI >= 30 kg/m^2) was −3.009. The “Effect on change in HAMD-28 score” value (Phase II, BMI >= 30 kg/m^2) was −3.245, the “Effect on change in HAMD-17 score” value [3] was −4.233 and the “Effect on change in HAMD-28 score” value [3] was −4.933. The “Effect on change in HAMD-17 score” value (Phase II, BMI >= 30 kg/m^2 and SAM/SAH < median) was −9.200, the “Effect on change in HAMD-28 score” value (Phase II, BMI >= 30 kg/m^2 and SAM/SAH < median = 2.71 (plasma)) was −10.350 and the “Effect on change in HAMD-17 score” value [4] was 0.113. The “Effect on change in HAMD-28 score” value [4] was 0.082, the “Effect on change in HAMD-17 score” value [5] was −2.267 and the “Effect on change in HAMD-28 score” value [5] was −3.000. The “Effect on change in HAMD-17 score” value (Phase II, MTHFR 677 CC and HNE-His < median) was −0.857, the “Effect on change in HAMD-28 score” value (Phase II, MTHFR 677 CC and HNE-His < median = 3.28 (plasma)) was −0.536 and the “Effect on change in HAMD-17 score” value [6] was −7.333. For the same compound, the “Effect on change in HAMD-28 score” value [6] was −8.667, the “Effect on change in HAMD-17 score” value [7] was −7.500 and the “Effect on change in HAMD-28 score” value [7] was −7.500. For the same compound, the “Effect on change in HAMD-17 score” value (Phase II, MTR 2756 AA) was −0.427, the “Effect on change in HAMD-28 score” value (Phase II, MTR 2756 AA) was −0.446 and the “Effect on change in HAMD-17 score” value [8] was 1.167. The “Effect on change in HAMD-28 score” value [8] was 0.917, the “Effect on change in HAMD-17 score” value [9] was 0.300 and the “Effect on change in HAMD-28 score” value [9] was −0.125. The “Effect on change in HAMD-17 score” value [10] was −8.000, the “Effect on change in HAMD-28 score” value [10] was −8.000 and the “Effect on change in HAMD-17 score” value (Phase II, MTR 2756 AA and MTRR 66 AA and HNE-His < median) was −8.667. The “Effect on change in HAMD-28 score” value (Phase II, MTR 2756 AA and MTRR 66 AA and HNE-His < median = 3.28 (plasma)) was −9.000, the “Effect on change in HAMD-17 score” value [11] was −7.000 and the “Effect on change in HAMD-28 score” value [11] was −7.500. The “Effect on change in HAMD-17 score” value [12] was 1.971, the “Effect on change in HAMD-28 score” value [12] was 2.000 and the “Effect on change in HAMD-17 score” value [13] was −12.167. For the same compound, the “Effect on change in HAMD-28 score” value [13] was −13.000, the “Effect on change in HAMD-17 score” value (Phase II, MTR 2756 AG or GG and HNE-His >= median) was −8.417 and the “Effect on change in HAMD-28 score” value (Phase II, MTR 2756 AG or GG and HNE-His >= median = 3.28 (plasma)) was −9.500. The “Effect on change in HAMD-17 score” value [14] was −4.667, the “Effect on change in HAMD-28 score” value [14] was −6.583 and the “Effect on change in HAMD-17 score” value [15] was −11.000. For the same compound, the “Effect on change in HAMD-28 score” value [15] was −12.000, the “Effect on change in HAMD-17 score” value (Phase II, MTR 2756 AG or GG and MTRR 66 AG or GG and SAM/SAH < median) was −6.500 and the “Effect on change in HAMD-28 score” value (Phase II, MTR 2756 AG or GG and MTRR 66 AG or GG and SAM/SAH < median = 2.71 (plasma)) was −10.500. The “Effect on change in HAMD-17 score” value (Phase II, MTR 2756 AG or GG and SAM/SAH < median) was −2.500, the “Effect on change in HAMD-28 score” value (Phase II, MTR 2756 AG or GG and SAM/SAH < median = 2.71 (plasma)) was −7.500 and the “Effect on change in HAMD-17 score” value (Phase II, MTR 2756 AG/GG) was −3.600. For the same compound, the “Effect on change in HAMD-28 score” value (Phase II, MTR 2756 AG/GG) was −5.300, the “Effect on change in HAMD-17 score” value (Phase II, MTRR 66 AA and HNE-His < median) was −1.667 and the “Effect on change in HAMD-28 score” value (Phase II, MTRR 66 AA and HNE-His < median = 3.28 (plasma)) was −2.000. The “Effect on change in HAMD-17 score” value [16] was −3.000, the “Effect on change in HAMD-28 score” value [16] was −3.333 and the “Effect on change in HAMD-17 score” value [17] was −3.500. The “Effect on change in HAMD-28 score” value [17] was −4.071, the “Effect on change in HAMD-17 score” value (Phase II, MTRR 66 AG or GG and SAM/SAH < median) was −6.190 and the “Effect on change in HAMD-28 score” value (Phase II, MTRR 66 AG or GG and SAM/SAH < median = 2.71 (plasma)) was −7.381. The “Effect on change in HAMD-17 score” value [18] was −9.000, the “Effect on change in HAMD-28 score” value [18] was −12.000 and the “Effect on change in HAMD-17 score” value [19] was 4.000. The “Effect on change in HAMD-28 score” value [19] was 4.500, the “Effect on change in HAMD-28 score” value (Phase II, SAM/SAH*treat, first line under HAMD28) was 1.483 and the “Effect on change in HAMD-17 score” value (Phase II, baseHAMD-17*treat (interaction of base HAMD-17 with the treatment)) was −0.249. For the same compound, the “Effect on change in HAMD-17 score” value [20] was 3.331, the “Effect on change in HAMD-28 score” value [20] was 2.054 and the “Effect on change in HAMD-17 score” value (Pooled phases, BMI < 25) was −1.248.
